{"source": "patent US12194068B2", "about": "“Dietary supplement composition for treating and managing acne” (CODEX LABS CORPORATION, priority 2023, dated 2025)", "origin": "cited, not measured here", "system": "C. acnes", "settings": "compared with benzoyl peroxide and erythromycin", "data": [{"smiles": "Oc1ccc(C=Cc2cc(O)cc(O)c2)cc1", "note": "[resveratrol]", "values": [{"measurement": "inhibition of C. acnes proliferation", "value": "on par with benzoyl peroxide and erythromycin"}]}]}
